The values below come from patent US11413354B2, “N-acetylgalactosamino dendron-clearing agent for dota-pretargeted radioimmunotherapy” (priority 2018, dated 2022).

Data set [1] has as its system GPA33-expressing SW1222 xenografts. The data set can be described thus: Absorbed dose estimates for PRIT+[^177Lu]LuDOTA-Bn including dendron-CA CCA-16-DOTA-Y^3+. It counts as in vivo, nude mice. The conditions noted are these: with dendron-CA; bone marrow as dose-limiting organ. How it is done: Absorbed dose estimates for PRIT+[^177Lu]LuDOTA-Bn including dendron-CA CCA-16-DOTA-Y^3+: In order to calculate absorbed doses for PRIT+[[…]]LuDOTA-Bn including dendron-CA (the clearing agent of the present technology), groups of nude mice bearing GPA33-expressing SW1222 xenografts (n=5/group) were injected i.v. with the BsAb huA33-C825 (250 μg; 1.19 nmol) 28 h prior and i.v. with dendron-clearing agent CCA-16-DOTA-Y^3+ (25 μg; 2.76 nmol) 4 h prior to administration of [^177Lu]LuDOTA-Bn (20 pmol, 3.7 MBq [100 μCi]). These mice were sacrificed at 1, 4, 24, or 48 h p.i. of [^177Lu]LuDOTA-Bn for biodistribution assay. For each tissue, the non-decay-corrected time-activity concentration data were fitted using Excel to a 1-component, 2-component, or more complex exponential function as appropriate, and analytically integrated to yield the cumulated activity concentration per unit administered activity (MBq-h/g per MBq). The ^177Lu equilibrium dose constant for non-penetrating radiations (8.49 g-cGy/MBq-h) was used to estimate the tumor-to-tumor and select organ-to-organ self-absorbed doses, assuming complete local absorption of the ^177Lu beta rays only, and ignoring the gamma ray and non-self dose contributions.

Data set [2] deals with SW1222 xenografts (anti-GPA33 PRIT). As to the kind of experiment: Optimized PRIT+[^177Lu]LuDOTA-Bn including dextran-CA (Cheal et al. 2016): dosimetry and therapy. It counts as in vivo, mice. The conditions noted are these: with dextran-CA; bone marrow as dose-limiting organ. The text has this: See Cheal et al., Eur J Nucl Med Mol Imaging 43: 925 (2016). […] Cheal et al., Eur J Nucl Med Mol Imaging 43: 925 (2016).
Based on human normal-tissue radiation dose tolerance estimates derived from clinical observations (Marks, et al., Int J Radiat Oncol Biol Phys. 76:S10-9 (2010)) the maximum tolerated doses (MTDs) are 250 cGy for bone marrow, 1,500 cGy for lung, 3,000 cGy for liver, and 2,000 cGy for kidney. […] At this activity, the estimated absorbed dose delivered to tumor would be 18,292 cGy (183 Gy), with 250 cGy to blood (marrow) and 1,473 cGy to kidney.

Data set [3] has the same test system. The conditions noted are these: with dextran-CA, cited from earlier work.
In data set [4] the test system is SW1222 tumor (same animal model). The conditions noted are these: 24 h p.i.; 1.85-8.8 MBq, 10-50 pmol; cited from earlier work.

Turning to “^177Lu-aminobenzylDOTA [[^177Lu]LuDOTA-Bn]”, the “maximum tolerated pretargeted activity” value in data set [1] is on record as 21 MBq; in data set [2] it was 278 MBq. In data set [3] (111.0 MBq delivered in a fractionated dose strategy), the CR frequency is on record as 100%. Besides, in data set [3] (111.0 MBq fractionated), the “survival beyond 140 days” value is recorded as “two of nine mice”. Further, the treatment-related toxicity result in data set [3] (effective treatment) is reported as “no major treatment-related toxicities observed”. Further, the mean tumor uptake in data set [4] was about 8 % ID/g.
